Test results taken from US20260028365A1 (BIOGEN MA INC., priority 2022, published 2026).
pIC50: −log10 of the molar value.

Legend:
JH2 domain of human Tyk2 = JH2 domain of human Tyk2 (Homo sapiens (Human), UniProt P29597); assay: JH2 Biochemical Assay (TR-FRET probe displacement); assay type: binding; settings: TR-FRET probe displacement, JH2 domain of human Tyk2
Tyk2 = Tyk2 (Homo sapiens (Human), UniProt P29597); assay: pSTAT4 Cell Assay (MSD, NK92 cells); assay type: cell-based; settings: MSD
Sequence of Tyk2 (P29597 whole entry): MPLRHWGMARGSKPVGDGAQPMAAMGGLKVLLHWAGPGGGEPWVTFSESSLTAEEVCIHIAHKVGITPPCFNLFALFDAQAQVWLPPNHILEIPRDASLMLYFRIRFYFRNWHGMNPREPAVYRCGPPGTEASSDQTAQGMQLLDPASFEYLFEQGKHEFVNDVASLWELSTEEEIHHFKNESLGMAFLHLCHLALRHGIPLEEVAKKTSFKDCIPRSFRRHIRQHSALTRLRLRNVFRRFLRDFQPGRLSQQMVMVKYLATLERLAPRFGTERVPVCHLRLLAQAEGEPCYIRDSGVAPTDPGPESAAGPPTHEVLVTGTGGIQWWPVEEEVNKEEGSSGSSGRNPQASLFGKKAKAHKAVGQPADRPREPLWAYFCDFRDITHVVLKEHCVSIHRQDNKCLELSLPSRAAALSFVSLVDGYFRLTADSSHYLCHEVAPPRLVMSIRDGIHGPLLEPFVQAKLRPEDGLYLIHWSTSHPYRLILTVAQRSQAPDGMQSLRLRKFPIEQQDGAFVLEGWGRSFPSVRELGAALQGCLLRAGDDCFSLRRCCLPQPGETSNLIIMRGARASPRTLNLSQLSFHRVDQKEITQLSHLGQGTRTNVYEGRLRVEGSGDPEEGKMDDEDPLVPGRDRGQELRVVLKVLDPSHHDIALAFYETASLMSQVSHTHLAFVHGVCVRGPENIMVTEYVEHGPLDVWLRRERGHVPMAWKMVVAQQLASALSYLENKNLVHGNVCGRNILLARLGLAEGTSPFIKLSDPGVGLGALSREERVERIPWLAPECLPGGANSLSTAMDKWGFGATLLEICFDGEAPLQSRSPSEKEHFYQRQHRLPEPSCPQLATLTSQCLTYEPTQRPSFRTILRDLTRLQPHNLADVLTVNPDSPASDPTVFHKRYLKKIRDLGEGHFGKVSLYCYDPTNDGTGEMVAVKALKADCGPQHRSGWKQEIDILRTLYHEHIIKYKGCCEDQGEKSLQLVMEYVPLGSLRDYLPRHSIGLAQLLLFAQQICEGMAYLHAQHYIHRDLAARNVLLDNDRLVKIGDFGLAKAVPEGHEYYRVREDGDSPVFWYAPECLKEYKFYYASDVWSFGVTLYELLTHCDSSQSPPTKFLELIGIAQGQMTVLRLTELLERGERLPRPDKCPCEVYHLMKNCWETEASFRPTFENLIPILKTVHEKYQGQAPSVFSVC

Sequence of JH2 domain of human Tyk2 (P29597 575-876): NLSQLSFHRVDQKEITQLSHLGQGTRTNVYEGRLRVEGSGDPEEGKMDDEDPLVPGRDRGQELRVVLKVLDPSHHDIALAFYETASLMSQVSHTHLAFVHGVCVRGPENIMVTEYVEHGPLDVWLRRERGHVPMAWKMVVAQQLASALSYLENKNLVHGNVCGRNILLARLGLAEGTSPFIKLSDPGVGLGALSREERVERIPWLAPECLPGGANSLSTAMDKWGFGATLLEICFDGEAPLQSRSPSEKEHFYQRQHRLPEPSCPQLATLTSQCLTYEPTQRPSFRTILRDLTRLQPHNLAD

Row | Structure (SMILES) | pIC50 (JH2 domain of human Tyk2) | pIC50 (Tyk2)
1 | CC(=O)Nc1cc(Nc2cc(C)nc(C(C)(F)F)n2)c(-c2cc(C#N)cnn2)cn1 [Example 286, N-(5-(5-cyanopyridazin-3-yl)-4-((2-(1,1-difluoroethyl)-6-methylpyrimidin-4-yl)amino)pyridin-2-yl)acetamide] | ≥ 8.00 | 6.00 to 7.00
2 | CC(=O)Nc1cc(Nc2cc(C)nc(C(C)(F)F)n2)c(-c2cc(CN(C)C)n(C)n2)cn1 [Example 287, N-(4-((2-(1,1-difluoroethyl)-6-methylpyrimidin-4-yl)amino)-5-(5-((dimethylamino)methyl)-1-methyl-1H-pyrazol-3-yl)pyridin-2-yl)acetamide] | ≥ 8.00 | ≥ 8.00
3 | Cc1cc(Nc2cc(NC(N)=O)ncc2-c2ccn(C)n2)nc(C(C)(F)F)n1 [Example 288, 1-(4-((2-(1,1-difluoroethyl)-6-methylpyrimidin-4-yl)amino)-5-(1-methyl-1H-pyrazol-3-yl)pyridin-2-yl)urea] | ≥ 8.00 | ≥ 8.00
4 | CC(=O)Nc1cc(Nc2cc(C)nc(C(C)(F)F)n2)c(OCCCF)cn1 [Example 295, N-(4-((2-(1,1-difluoroethyl)-6-methylpyrimidin-4-yl)amino)-5-(3-fluoropropoxy)pyridin-2-yl)acetamide] | ≥ 8.00 | 7.00 to 8.00
5 | COc1cncc(-c2cc(Nc3cc(NC(C)=O)ncc3OC)nc(C(C)(F)F)n2)c1 [Example 296, N-(4-((2-(1,1-difluoroethyl)-6-(5-methoxypyridin-3-yl)pyrimidin-4-yl)amino)-5-methoxypyridin-2-yl)acetamide] | 7.00 to 8.00 | 6.00 to 7.00
6 | CCOc1cnc(NC(C)=O)cc1Nc1cc(OC2CC3(COC3)C2)nc(C(C)(F)F)n1 [Example 297, N-(4-((6-((2-oxaspiro[3.3]heptan-6-yl)oxy)-2-(1,1-difluoroethyl)pyrimidin-4-yl)amino)-5-ethoxypyridin-2-yl)acetamide] | ≥ 8.00 | ≥ 8.00
7 | CO[C@@H](C)COc1cnc(NC(C)=O)cc1Nc1cc(OC2CC2)nc(C(C)(F)F)n1 [Example 299, (S)-N-(4-((6-cyclopropoxy-2-(1,1-difluoroethyl)pyrimidin-4-yl)amino)-5-(2-methoxypropoxy)pyridin-2-yl)acetamide] | ≥ 8.00 | ≥ 8.00
8 | CC(=O)Nc1cc(Nc2cc(OC3CC3)nc(C(C)(F)F)n2)c(Oc2cnn(C)c2)cn1 [Example 301, N-(4-((6-cyclopropoxy-2-(1,1-difluoroethyl)pyrimidin-4-yl)amino)-5-((1-methyl-1H-pyrazol-4-yl)oxy)pyridin-2-yl)acetamide] | 7.00 to 8.00 | 6.00 to 7.00
9 | CCOc1cnc(NC(C)=O)cc1Nc1cc(-c2cnn(C(F)F)c2)nc(C(C)(F)F)n1 [Example 303, N-(4-((2-(1,1-difluoroethyl)-6-(1-(difluoromethyl)-1H-pyrazol-4-yl)pyrimidin-4-yl)amino)-5-ethoxypyridin-2-yl)acetamide] | ≥ 8.00 | 7.00 to 8.00
10 | CCOc1cnc(NC(C)=O)cc1Nc1cc(-c2cnn(CC(=O)O)c2)nc(C(C)(F)F)n1 [Example 305, 2-(4-(6-((2-acetamido-5-ethoxypyridin-4-yl)amino)-2-(1,1-difluoroethyl)pyrimidin-4-yl)-1H-pyrazol-1-yl)acetic acid] | ≥ 8.00 | ≤ 6.00
11 | CCOc1cnc(NC(C)=O)cc1Nc1cc(-c2cnn(C(=O)OC(C)(C)C)c2)nc(C(C)(F)F)n1 [Example 307, tert-butyl 4-(6-((2-acetamido-5-ethoxypyridin-4-yl)amino)-2-(1,1-difluoroethyl)pyrimidin-4-yl)-1H-pyrazole-1-carboxylate] | ≥ 8.00 | 7.00 to 8.00
12 | CCOc1cnc(NC(C)=O)cc1Nc1cc(-c2cnn(CCN(C)C)c2)nc(C(C)(F)F)n1 [Example 308, N-(4-((2-(1,1-difluoroethyl)-6-(1-(2-(dimethylamino)ethyl)-1H-pyrazol-4-yl)pyrimidin-4-yl)amino)-5-ethoxypyridin-2-yl)acetamide] | ≥ 8.00 | 7.00 to 8.00
13 | CCOc1cnc(NC(C)=O)cc1Nc1cc(-c2cnn(CC(F)(F)F)c2)nc(C(C)(F)F)n1 [Example 309, N-(4-((2-(1,1-difluoroethyl)-6-(1-(2,2,2-trifluoroethyl)-1H-pyrazol-4-yl)pyrimidin-4-yl)amino)-5-ethoxypyridin-2-yl)acetamide] | ≥ 8.00 | 7.00 to 8.00
14 | CCOc1cnc(NC(C)=O)cc1Nc1cc(-c2cnn(CCOC)c2)nc(C(C)(F)F)n1 [Example 310, N-(4-((2-(1,1-difluoroethyl)-6-(1-(2-methoxyethyl)-1H-pyrazol-4-yl)pyrimidin-4-yl)amino)-5-ethoxypyridin-2-yl)acetamide] | ≥ 8.00 | 7.00 to 8.00
15 | CCOc1cnc(NC(C)=O)cc1Nc1cc(-c2cnn(C3CCC3)c2)nc(C(C)(F)F)n1 [Example 312, N-(4-((6-(1-cyclobutyl-1H-pyrazol-4-yl)-2-(1,1-difluoroethyl)pyrimidin-4-yl)amino)-5-ethoxypyridin-2-yl)acetamide] | ≥ 8.00 | ≥ 8.00
16 | CCOc1cnc(NC(C)=O)cc1Nc1cc(-c2cnn(CCN3CCOCC3)c2)nc(C(C)(F)F)n1 [Example 313, N-(4-((2-(1,1-difluoroethyl)-6-(1-(2-morpholinoethyl)-1H-pyrazol-4-yl)pyrimidin-4-yl)amino)-5-ethoxypyridin-2-yl)acetamide] | ≥ 8.00 | 7.00 to 8.00
17 | CC(=O)Nc1cc(Nc2cc(C)nc(C(C)(F)F)n2)c(OC[C@H](C)OC(C)(C)C)cn1 [Example 318, (S)-N-(5-(2-(tert-butoxy)propoxy)-4-((2-(1,1-difluoroethyl)-6-methylpyrimidin-4-yl)amino)pyridin-2-yl)acetamide] | ≥ 8.00 | 6.00 to 7.00
18 | CCc1cc(COc2cnc(NC(C)=O)cc2Nc2cc(C)nc(C(C)(F)F)n2)on1 [Example 319, N-(4-((2-(1,1-difluoroethyl)-6-methylpyrimidin-4-yl)amino)-5-((3-ethylisoxazol-5-yl)methoxy)pyridin-2-yl)acetamide] | ≥ 8.00 | 7.00 to 8.00
19 | CC(=O)Nc1cc(Nc2cc(C)nc(C(C)(F)F)n2)c(OCc2cnc(C)o2)cn1 [Example 320, N-(4-((2-(1,1-difluoroethyl)-6-methylpyrimidin-4-yl)amino)-5-((2-methyloxazol-5-yl)methoxy)pyridin-2-yl)acetamide] | ≥ 8.00 | 7.00 to 8.00
20 | CC(=O)Nc1cc(Nc2cc(C)nc(C(C)(F)F)n2)c(OC[C@@H](C)OC(C)(C)C)cn1 [Example 321, (R)-N-(5-(2-(tert-butoxy)propoxy)-4-((2-(1,1-difluoroethyl)-6-methylpyrimidin-4-yl)amino)pyridin-2-yl)acetamide] | ≥ 8.00 | 7.00 to 8.00
21 | COc1cc(COc2cnc(NC(C)=O)cc2Nc2cc(C)nc(C(C)(F)F)n2)on1 [Example 322, N-(4-((2-(1,1-difluoroethyl)-6-methylpyrimidin-4-yl)amino)-5-((3-methoxyisoxazol-5-yl)methoxy)pyridin-2-yl)acetamide] | ≥ 8.00 | 7.00 to 8.00
22 | CC(=O)Nc1cc(Nc2cc(C)nc(C(C)(F)F)n2)c(OCc2ccsn2)cn1 [Example 323, N-(4-((2-(1,1-difluoroethyl)-6-methylpyrimidin-4-yl)amino)-5-(isothiazol-3-ylmethoxy)pyridin-2-yl)acetamide] | ≥ 8.00 | ≥ 8.00
